In patent US20250114361A1, “PYRAZOLOPYRIMIDINE COMPOUND AND PHARMACEUTICAL USE THEREOF” (Japan Tobacco Inc., priority 2022, published 2025):

Target: NLRP3 inflammasome (Homo sapiens (Human), UniProt Q96P20)
Experiment: NLRP3 inflammasome inhibitory activity: inhibition of IL-1β production in THP1-Null cells (PMA, LPS, Nigericin)
Assay type: cell-based
Conditions: for IC50: Nigericin 7.5 μmol/L
Experimental: The NLRP3 inflammasome inhibitory activity of test compounds were evaluated on the basis of the inhibitory activity of the IL-1β production in THP1-Null cells (Product Number: thp-null, InvivoGen). Cells were maintained for culture in RPMI-1640 media containing 10% (v/v) fetal bovine serum, 25 mmol/L HEPES, 100 U/mL penicillin, 100 μg/mL streptomycin, 100 μg/mL normocin, and 200 μg/mL hygromycin B (set at 37° C., 5% CO2/95% air).
Cells were suspended with media for assay containing 0.5 μmol/L PMA (RPMI-1640 media containing 10% (v/v) fetal bovine serum, 100 U/mL penicillin, and 100 μg/mL streptomycin), and the suspended cells were seeded on Corning (registered trademark) 384-well Flat Clear Bottom Black Polystyrene TC-treated Microplates (25,000 cells/25 μL/well), followed by incubation (set at 37° C., 5% CO2/95% air) overnight. The supernatant of the culture was removed, and thereto was added media for assay (25 μL/well) containing 1 μg/mL Lipopolysaccharides (Product Number: L2654, Sigma-Aldrich (registered trademark)). Then, the culture was further incubated for 3 hours (set at 37° C., 5% CO2/95% air). The supernatant of the culture was removed. Then, a vehicle solution prepared from Opti-MEM (trademark) medium (Product Number: 31985-070, Invitrogen) was added to blank-setting wells and control-setting wells (20 μL/well), followed by incubation for 15 minutes (set at 37° C., 5% CO2/95% air). A solution containing a test compound (20 μL/well) was added to test compound-setting wells. Further, Opti-MEM (trademark) medium containing Nigericin (Product Number: N7143, Sigma-Aldrich (registered trademark)) was added to the control-setting wells and test compound-setting wells (5 μL/well), followed by incubation for 1.5 hours (set at 37° C., 5% CO2/95% air). The final concentration of Nigericin was adjusted to be 7.5 μmol/L. 5 μL/well of Opti-MEM (trademark) medium was added to the blank-setting wells. The supernatant of the culture was cryonically stored (set at −20° C.) until measurement of IL-1β.
The amount of IL-1β in the culture supernatant was quantitated with AlphaLISA (registered trademark) Human IL-1β Detection Kit (Product Number: AL220C, Perkin Elmer). Fluorescence intensity was measured with a microplate reader EnSpier (Model number: 2300-00J, Perkin Elmer) or EnSight (Model number: HH34000000, Perkin Elmer) according to procedure manuals attached thereto. Inhibition rates of the test compound-setting wells were calculated on the basis of 100% for the blank-setting wells and 0% for the control-setting wells. IC50 values (i.e., 50% inhibitory concentrations) of the test compounds were calculated by logistic regression analysis.

NLRP3 inflammasome, sequence (Q96P20 whole entry): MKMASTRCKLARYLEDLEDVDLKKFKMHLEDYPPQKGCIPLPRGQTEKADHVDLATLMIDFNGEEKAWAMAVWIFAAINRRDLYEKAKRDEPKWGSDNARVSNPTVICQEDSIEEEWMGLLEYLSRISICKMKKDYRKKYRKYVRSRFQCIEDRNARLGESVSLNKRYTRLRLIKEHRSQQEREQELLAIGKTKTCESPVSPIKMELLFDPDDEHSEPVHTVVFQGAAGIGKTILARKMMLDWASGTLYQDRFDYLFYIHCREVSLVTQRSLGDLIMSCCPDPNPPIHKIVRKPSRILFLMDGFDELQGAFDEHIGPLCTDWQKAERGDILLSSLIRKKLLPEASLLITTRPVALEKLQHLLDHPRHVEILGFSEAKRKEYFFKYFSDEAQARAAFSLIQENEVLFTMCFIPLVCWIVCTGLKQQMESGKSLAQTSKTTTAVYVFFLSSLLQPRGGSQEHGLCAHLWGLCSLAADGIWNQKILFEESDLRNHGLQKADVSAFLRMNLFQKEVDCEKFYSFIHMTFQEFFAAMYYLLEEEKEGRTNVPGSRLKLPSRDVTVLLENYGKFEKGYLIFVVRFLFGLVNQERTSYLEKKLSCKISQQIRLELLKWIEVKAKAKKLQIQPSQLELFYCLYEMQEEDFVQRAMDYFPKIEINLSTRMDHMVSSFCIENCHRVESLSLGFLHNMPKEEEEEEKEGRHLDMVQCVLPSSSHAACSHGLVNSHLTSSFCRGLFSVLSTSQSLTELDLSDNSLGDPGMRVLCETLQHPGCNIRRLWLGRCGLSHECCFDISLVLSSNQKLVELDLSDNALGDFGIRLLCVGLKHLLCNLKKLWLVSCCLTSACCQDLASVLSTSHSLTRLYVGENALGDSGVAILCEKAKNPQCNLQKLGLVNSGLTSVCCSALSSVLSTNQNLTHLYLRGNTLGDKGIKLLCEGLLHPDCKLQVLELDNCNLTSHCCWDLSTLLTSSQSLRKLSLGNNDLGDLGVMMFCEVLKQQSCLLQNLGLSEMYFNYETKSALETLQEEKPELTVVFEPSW

Row | Structure (SMILES) | IC50 | other results
1 | Cc1cc(C2(F)CC2(Cl)Cl)cc(C)c1-n1cc2c(=O)[nH]c(-c3ccn(C)n3)nc2n1 (racemic) [Example 45] |  | inhibition at 2.4 µM (at 2.4 μM): 34%
2 | Cc1ccccc1-n1cc2c(=O)[nH]c(-c3ccn(C)n3)nc2n1 [Example 1] | 3800 nM | 
3 | COc1cc(C)c(-n2cc3c(=O)[nH]c(-c4ccn(C)n4)nc3n2)c(C)c1 [Example 2] | 64 nM | 
4 | COc1cc(C)c(-n2cc3c(=O)[nH]c(-c4cnn(C)c4)nc3n2)c(C)c1 [Example 3] | 110 nM | 
5 | Cc1cc(C2CC2)cc(C)c1-n1cc2c(=O)[nH]c(-c3ccn(C)n3)nc2n1 [Example 4, 2-(4-cyclopropyl-2,6-dimethylphenyl)-6-(1-methyl-1H-pyrazol-3-yl)-2,5-dihydro-4H-pyrazolo[3,4-d]pyrimidin-4-one] | 15 nM | 
6 | Cc1cc(C2CC2)cc(C)c1-n1cc2c(=O)[nH]c(-c3ccnn3C)nc2n1 [Example 5] | 23 nM | 
7 | Cc1cn(C)nc1-c1nc2nn(-c3c(C)cc(C4CC4)cc3C)cc2c(=O)[nH]1 [Example 6] | 50 nM | 
8 | Cc1cc(C(C)(F)F)cc(C)c1-n1cc2c(=O)[nH]c(-c3ccn(C)n3)nc2n1 [Example 8, 2-{4-(1,1-difluoroethyl)-2,6-dimethylphenyl}-6-(1-methyl-1H-pyrazol-3-yl)-2,5-dihydro-4H-pyrazolo[3,4-d]pyrimidin-4-one] | 33 nM | 
9 | Cc1cc(OC(F)F)cc(C)c1-n1cc2c(=O)[nH]c(-c3ccn(C)n3)nc2n1 [Example 9] | 49 nM | 
10 | Cc1cc(Br)cc(C)c1-n1cc2c(=O)[nH]c(-c3ccn(C)n3)nc2n1 [Example 10] | 20 nM | 
11 | Cc1cc(Br)cc(C)c1-n1cc2c(=O)[nH]c(-c3cnn(C)c3)nc2n1 [Example 11] | 18 nM | 
12 | Cc1cc(Br)cc(C)c1-n1cc2c(=O)[nH]c(-c3ccncn3)nc2n1 [Example 12, 2-(4-bromo-2,6-dimethylphenyl)-6-(pyrimidine-4-yl)-2,5-dihydro-4H-pyrazolo[3,4-d]pyrimidin-4-one] | 7.8 nM | 
13 | Cc1cc(C2CC2)cc(C)c1-n1cc2c(=O)[nH]c(-c3cc[nH]n3)nc2n1 [Example 13] | 29 nM | 
14 | Cc1nnc(-c2nc3nn(-c4c(C)cc(Br)cc4C)cc3c(=O)[nH]2)o1 [Example 14] | 390 nM | 
15 | Cc1cc(Br)cc(C)c1-n1cc2c(=O)[nH]c(-c3ccnnc3)nc2n1 [Example 15] | 15 nM | 
16 | COCCn1ccc(-c2nc3nn(-c4c(C)cc(Br)cc4C)cc3c(=O)[nH]2)n1 [Example 16] | 47 nM | 
17 | COCCn1nccc1-c1nc2nn(-c3c(C)cc(Br)cc3C)cc2c(=O)[nH]1 [Example 17] | 220 nM | 
18 | Cc1cc(C2CC2)cc(C)c1-n1cc2c(=O)[nH]c(-c3ccn(C(F)F)n3)nc2n1 [Example 18] | 55 nM | 
19 | Cc1cc(C2CC2)cc(C)c1-n1cc2c(=O)[nH]c(-c3ccn(C4COC4)n3)nc2n1 [Example 19] | 62 nM | 
20 | COCCn1ccc(-c2nc3nn(-c4c(C)cc(C5CC5)cc4C)cc3c(=O)[nH]2)n1 [Example 20] | 23 nM | 

Row | Structure (SMILES) | IC50 | other results
21 | Cc1cc(Br)cc(C)c1-n1cc2c(=O)[nH]c(-c3cn(C)nn3)nc2n1 [Example 21] | 13 nM | 
22 | Cc1cc(Br)cc(C)c1-n1cc2c(=O)[nH]c(-c3cnccn3)nc2n1 [Example 22] | 68 nM | 
23 | Cc1cc(Br)cc(C)c1-n1cc2c(=O)[nH]c(-c3cccnn3)nc2n1 [Example 23] | 22 nM | 
24 | Cc1ncc(-c2nc3nn(-c4c(C)cc(Br)cc4C)cc3c(=O)[nH]2)o1 [Example 24] | 53 nM | 
25 | Cc1cc(-c2nc3nn(-c4c(C)cc(Br)cc4C)cc3c(=O)[nH]2)no1 [Example 25] | 15 nM | 
26 | Cc1cc(C2CC2)cc(C)c1-n1cc2c(=O)[nH]c(-c3cn(C)nn3)nc2n1 [Example 26] | 12 nM | 
27 | Cc1cc(OC(F)F)cc(C)c1-n1cc2c(=O)[nH]c(-c3cccnn3)nc2n1 [Example 27] | 62 nM | 
28 | Cc1cc(C2CC2)cc(C)c1-n1cc2c(=O)[nH]c(-c3ccnnc3)nc2n1 [Example 28] | 11 nM | 
29 | Cc1cc(C(F)(F)F)cc(C)c1-n1cc2c(=O)[nH]c(-c3ccn(C)n3)nc2n1 [Example 29] | 69 nM | 
30 | CCn1ccc(-c2nc3nn(-c4c(C)cc(Br)cc4C)cc3c(=O)[nH]2)n1 [Example 30] | 40 nM | 
31 | Cc1cc(Br)cc(C)c1-n1cc2c(=O)[nH]c(-c3cc(C(F)(F)F)ncn3)nc2n1 [Example 31] | 940 nM | 
32 | Cc1cc(Br)cc(C)c1-n1cc2c(=O)[nH]c(-c3ccnc(C(F)(F)F)n3)nc2n1 [Example 32] | 77 nM | 
33 | Cc1cc(C(F)(F)F)cc(C)c1-n1cc2c(=O)[nH]c(-c3ccncc3F)nc2n1 [Example 33] | 22 nM | 
34 | COc1nccc(-c2nc3nn(-c4c(C)cc(Br)cc4C)cc3c(=O)[nH]2)n1 [Example 34] | 27 nM | 
35 | Cc1cc(Br)cc(C)c1-n1cc2c(=O)[nH]c(-c3ccncc3F)nc2n1 [Example 35] | 24 nM | 
36 | Cc1cc(C2CC2)cc(C)c1-n1cc2c(=O)[nH]c(-c3ccncc3F)nc2n1 [Example 36] | 16 nM | 
37 | Cc1cc(Br)cc(C)c1-n1cc2c(=O)[nH]c(-c3nn(C)cc3F)nc2n1 [Example 37] | 36 nM | 
38 | Cc1cc(C2CC2)cc(C)c1-n1cc2c(=O)[nH]c(-c3nn(C)cc3F)nc2n1 [Example 38] | 15 nM | 
39 | Cc1cc(C2CC2)cc(C)c1-n1cc2c(=O)[nH]c(-c3cn(C)cn3)nc2n1 [Example 39, 2-(4-cyclopropyl-2,6-dimethylphenyl)-6-(1-methyl-1H-imidazol-4-yl)-2,5-dihydro-4H-pyrazolo[3,4-d]pyrimidin-4-one] | 23 nM | 
40 | COCc1cc(C2CC2)cc(C)c1-n1cc2c(=O)[nH]c(-c3ccn(C)n3)nc2n1 [Example 40] | 6.3 nM | 

Row | Structure (SMILES) | IC50 | other results
41 | Cc1cc(C(C)(F)F)cc(C)c1-n1cc2c(=O)[nH]c(-c3cn(C)cn3)nc2n1 [Example 41, 2-{4-(1,1-difluoroethyl)-2,6-dimethylphenyl}-6-(1-methyl-1H-imidazol-4-yl)-2,5-dihydro-4H-pyrazolo[3,4-d]pyrimidin-4-one] | 40 nM | 
42 | Cc1cc(C(C)(F)F)cc(C)c1-n1cc2c(=O)[nH]c(-c3ccncn3)nc2n1 [Example 42] | 14 nM | 
43 | Cc1cc(C2CC2)cc(C)c1-n1cc2c(=O)[nH]c(-c3ccncn3)nc2n1 [Example 43] | 4.3 nM | 
44 | Cc1cccc(C)c1-n1cc2c(=O)[nH]c(-c3ccn(C)n3)nc2n1 [Example 44] | 880 nM | 
45 | Cc1cc(C2(F)CC2)cc(C)c1-n1cc2c(=O)[nH]c(-c3ccn(C)n3)nc2n1 [Example 46] | 3.1 nM | 
46 | Cc1cc(C2CC2)cc(C)c1-n1cc2c(=O)[nH]c(-c3cnn(C)c3)nc2n1 [Example 47] | 6.7 nM | 
47 | Cc1cc(I)cc(C)c1-n1cc2c(=O)[nH]c(-c3ccn(C)n3)nc2n1 [Example 48] | 2.5 nM | 
48 | Cc1cc(C2CC2)cc(CO)c1-n1cc2c(=O)[nH]c(-c3ccn(C)n3)nc2n1 [Example 49] | 37 nM | 
49 | Cc1csc(-c2nc3nn(-c4c(C)cc(C5CC5)cc4C)cc3c(=O)[nH]2)n1 [Example 50] | 6 nM | 
50 | Cc1cc(C2(O)CC2)cc(C)c1-n1cc2c(=O)[nH]c(-c3ccn(C)n3)nc2n1 [Example 51] |  | inhibition at 0.3 µM (at 0.3 μM): 35%
51 | Cc1cc(C2CC2)cc(C)c1-n1cc2c(=O)[nH]c(-c3cscn3)nc2n1 [Example 52] | 2 nM | 
52 | Cc1cc(C2CC2)cc(C)c1-n1cc2c(=O)[nH]c(-c3cnn4c3OCCC4)nc2n1 [Example 53] | 240 nM | 
53 | Cc1cc(C2CC2)cc(C)c1-n1cc2c(=O)[nH]c(-c3cc4n(n3)CCOC4)nc2n1 [Example 54] | 9 nM | 
54 | Cc1cc(C2CC2)cc(C)c1-n1cc2c(=O)[nH]c(-c3cc4n(n3)CCCO4)nc2n1 [Example 55] | 24 nM | 
55 | Cn1ccc(-c2nc3nn(-c4cc5c(cc4Cl)OCCC5)cc3c(=O)[nH]2)n1 [Example 56] | 84 nM | 
56 | Cc1cc(C2CC2)cc(C)c1-n1cc2c(=O)[nH]c(-c3cc4n(n3)CCC4)nc2n1 [Example 57] | 9 nM | 
57 | Cc1cc(C(C)(F)F)cc(C)c1-n1cc2c(=O)[nH]c(-c3cscn3)nc2n1 [Example 58] | 3 nM | 
58 | Cn1ccc(-c2nc3nn(-c4cc5c(cc4Cl)CCC5)cc3c(=O)[nH]2)n1 [Example 59, 2-(6-chloro-2,3-dihydro-1H-inden-5-yl)-6-(1-methyl-1H-pyrazol-3-yl)-2,5-dihydro-4H-pyrazolo[3,4-d]pyrimidin-4-one] | 34 nM | 
59 | Cc1cc(C(C)(F)F)cc(C)c1-n1cc2c(=O)[nH]c(-c3nc[nH]n3)nc2n1 [Example 60] | 390 nM | 
